Values after ≈ are worked out from the molar mass of the structure shown. Active and inactive are the calls of the source. The calls are words filed in the database; no cut-off is given here.
Experiments:
[1] = system: Candida albicans; assay: Antifungal activity against FCZ-resistant Candida albicans CaR by CLSI based broth microdilution method; assay type: functional
[2] = system: Candida albicans; assay: Antifungal activity against FCZ-resistant Candida albicans 632 by CLSI based broth microdilution method; assay type: functional
[3] = system: Candida albicans; assay: Antifungal activity against FCZ-resistant Candida albicans 904 by CLSI based broth microdilution method; assay type: functional
[4] = system: Candida albicans; assay: Fungicidal activity against Candida albicans; assay type: functional
[5] = system: Candida albicans; assay: Fungicidal activity against Candida albicans sc5314; assay type: functional
[6] = system: Candida albicans; assay: Fungicidal activity against FCZ-resistant Candida albicans CaR; assay type: functional
[7] = system: Candida albicans; assay: Fungicidal activity against FCZ-resistant Candida albicans 17#; assay type: functional
[8] = system: Candida albicans; assay: Fungicidal activity against FCZ-resistant Candida albicans 632; assay type: functional
[9] = system: Candida albicans; assay: Fungicidal activity against FCZ-resistant Candida albicans 901; assay type: functional
[10] = system: Candida albicans; assay: Fungicidal activity against FCZ-resistant Candida albicans 904; assay type: functional
[11] = target: T1, Lanosterol 14-alpha demethylase (Candida albicans (strain SC5314 / ATCC MYA-2876) (Yeast), UniProt P10613); assay: Inhibition of CYP51 of Candida albicans ATCC SC5314 assessed as decrease in ergosterol level by measuring residual activity at 1 ug/ml incubated for 16 hrs by GC-MS analysis (reference value: 98.3 %); conditions: at 1 µg/mL
[12] = target: T1, Lanosterol 14-alpha demethylase; assay: Inhibition of CYP51 of Candida albicans ATCC SC5314 assessed as decrease in ergosterol level by measuring residual activity at 2 ug/ml incubated for 16 hrs by GC-MS analysis (reference value: 98.3 %); conditions: at 2 µg/mL
[13] = target: T1, Lanosterol 14-alpha demethylase; assay: Inhibition of CYP51 of Candida albicans ATCC SC5314 assessed as decrease in ergosterol level by measuring residual activity at 4 ug/ml incubated for 16 hrs by GC-MS analysis (reference value: 98.3 %); conditions: at 4 µg/mL
[14] = target: T1, Lanosterol 14-alpha demethylase; assay: Inhibition of CYP51 of Candida albicans ATCC SC5314 assessed as decrease in ergosterol level by measuring residual activity at 8 ug/ml incubated for 16 hrs by GC-MS analysis (reference value: 98.3 %); conditions: at 8 µg/mL
[15] = target: T1, Lanosterol 14-alpha demethylase; assay: Inhibition of CYP51 of Candida albicans ATCC SC5314 assessed as increase in obtusifoliol level at 1 ug/ml incubated for 16 hrs by GC-MS analysis (reference value: 0 %); parameters: scale not given: the % may be the effect or the level left; conditions: at 1 µg/mL
[16] = target: T1, Lanosterol 14-alpha demethylase; assay: Inhibition of CYP51 of Candida albicans ATCC SC5314 assessed as increase in obtusifoliol level at 4 ug/ml incubated for 16 hrs by GC-MS analysis (reference value: 0 %); parameters: scale not given: the % may be the effect or the level left; conditions: at 4 µg/mL
[17] = target: T1, Lanosterol 14-alpha demethylase; assay: Inhibition of CYP51 of Candida albicans ATCC SC5314 assessed as increase in lanosterol level at 1 ug/ml incubated for 16 hrs by GC-MS analysis (reference value: 1.7 %); parameters: scale not given: the % may be the effect or the level left; conditions: at 1 µg/mL
[18] = target: T1, Lanosterol 14-alpha demethylase; assay: Inhibition of CYP51 of Candida albicans ATCC SC5314 assessed as increase in lanosterol level at 2 ug/ml incubated for 16 hrs by GC-MS analysis (reference value: 1.7 %); parameters: scale not given: the % may be the effect or the level left; conditions: at 2 µg/mL
[19] = target: T1, Lanosterol 14-alpha demethylase; assay: Inhibition of CYP51 of Candida albicans ATCC SC5314 assessed as increase in lanosterol level at 4 ug/ml incubated for 16 hrs by GC-MS analysis (reference value: 1.7 %); parameters: scale not given: the % may be the effect or the level left; conditions: at 4 µg/mL
[20] = target: T1, Lanosterol 14-alpha demethylase; assay: Inhibition of CYP51 of Candida albicans ATCC SC5314 assessed as increase in lanosterol level at 8 ug/ml incubated for 16 hrs by GC-MS analysis (reference value: 1.7 %); parameters: scale not given: the % may be the effect or the level left; conditions: at 8 µg/mL
[21] = target: T1, Lanosterol 14-alpha demethylase; assay: Inhibition of CYP51 of Candida albicans ATCC SC5314 assessed as increase in eburicol level at 1 ug/ml incubated for 16 hrs by GC-MS analysis (reference value: 0 %); parameters: scale not given: the % may be the effect or the level left; conditions: at 1 µg/mL
[22] = target: T1, Lanosterol 14-alpha demethylase; assay: Inhibition of CYP51 of Candida albicans ATCC SC5314 assessed as increase in eburicol level at 2 ug/ml incubated for 16 hrs by GC-MS analysis (reference value: 0 %); parameters: scale not given: the % may be the effect or the level left; conditions: at 2 µg/mL
[23] = target: T1, Lanosterol 14-alpha demethylase; assay: Inhibition of CYP51 of Candida albicans ATCC SC5314 assessed as increase in eburicol level at 4 ug/ml incubated for 16 hrs by GC-MS analysis (reference value: 0 %); parameters: scale not given: the % may be the effect or the level left; conditions: at 4 µg/mL
[24] = system: Candida albicans; assay: Antibiofilm activity against Candida albicans SC5314 assessed as sessile minimum inhibitory concentration measured after 1.5 hrs by XTT assay; assay type: functional
[25] = system: Candida albicans; assay: Antibiofilm activity against Candida albicans SC5314 assessed as sessile minimum inhibitory concentration measured after 24 hrs by XTT assay; assay type: functional
[26] = system: Candida albicans; assay: Antibiofilm activity against Candida albicans CPCC400616 assessed as sessile minimum inhibitory concentration measured after 1.5 hrs by XTT assay; assay type: functional
[27] = system: Candida albicans; assay: Antibiofilm activity against Candida albicans CPCC400616 assessed as sessile minimum inhibitory concentration measured after 6 hrs by XTT assay; assay type: functional
[28] = system: Candida albicans; assay: Antibiofilm activity against Candida albicans CPCC400616 assessed as sessile minimum inhibitory concentration measured after 24 hrs by XTT assay; assay type: functional
[29] = Cytotoxicity against human MDA-MB-231 cells by MTT assay; assay type: toxicity, cell-based
[30] = Cytotoxicity against human PC-3 cells by MTT assay; assay type: toxicity, cell-based
[31] = Metabolic stability in mouse liver microsome assessed as half life; assay type: ADME; conditions: liver microsomes
[32] = Metabolic stability in mouse liver microsome assessed as clearance; assay type: ADME; conditions: liver microsomes, read-out: CLH
[33] = system: Candida albicans; assay: Antifungal activity against Candida albicans ATCC SC5314 infected in mouse model assessed as reduction in kidney fungal burden at 6 to 12 mg/kg, ip measured after 5 consecutive days by colony forming unit assay; assay type: functional, organism-based; conditions: dose 6-12 mg/kg, time 5.0 day
[34] = Acute toxicity in water diet-fed Kunming mouse assessed as animal death at 500 mg/kg, IG measured for 7 days; assay type: organism-based; conditions: in vivo, po, 168 h, time 7 day
[35] = Subacute toxicity in water diet-fed Kunming mouse assessed as animal death at 100 to 200 mg/kg, IG measured after 7 to 14 days of continuous administration; assay type: organism-based; conditions: in vivo, po, dose lower 100 mg/kg, time lower 7 day, dose upper 200 mg/kg, time upper 14 day
[36] = Subacute toxicity in water diet-fed Kunming mouse assessed as lesions in liver at 100 to 200 mg/kg, IG measured after 8 to 15 days; assay type: organism-based; conditions: in vivo, po, dose lower 100 mg/kg, time lower 8 day, dose upper 200 mg/kg, time upper 15 day
[37] = Subacute toxicity in water diet-fed Kunming mouse assessed as effect on kidney at 100 to 200 mg/kg, IG measured after 7 to 14 days by microscopic analysis; assay type: organism-based; conditions: in vivo, po, dose lower 100 mg/kg, time lower 7 day, dose upper 200 mg/kg, time upper 14 day
[38] = Subacute toxicity in water diet-fed Kunming mouse assessed as liver edema at 100 to 200 mg/kg, IG measured after 7 to 14 days by microscopic analysis; assay type: organism-based; conditions: in vivo, po, dose lower 100 mg/kg, time lower 7 day, dose upper 200 mg/kg, time upper 14 day
[39] = Subacute toxicity in water diet-fed Kunming mouse assessed as focal necrosis in liver at 100 to 200 mg/kg, IG measured after 7 to 14 days by microscopic analysis; assay type: organism-based; conditions: in vivo, po, dose lower 100 mg/kg, time lower 7 day, dose upper 200 mg/kg, time upper 14 day

T1 sequence (P10613 whole entry): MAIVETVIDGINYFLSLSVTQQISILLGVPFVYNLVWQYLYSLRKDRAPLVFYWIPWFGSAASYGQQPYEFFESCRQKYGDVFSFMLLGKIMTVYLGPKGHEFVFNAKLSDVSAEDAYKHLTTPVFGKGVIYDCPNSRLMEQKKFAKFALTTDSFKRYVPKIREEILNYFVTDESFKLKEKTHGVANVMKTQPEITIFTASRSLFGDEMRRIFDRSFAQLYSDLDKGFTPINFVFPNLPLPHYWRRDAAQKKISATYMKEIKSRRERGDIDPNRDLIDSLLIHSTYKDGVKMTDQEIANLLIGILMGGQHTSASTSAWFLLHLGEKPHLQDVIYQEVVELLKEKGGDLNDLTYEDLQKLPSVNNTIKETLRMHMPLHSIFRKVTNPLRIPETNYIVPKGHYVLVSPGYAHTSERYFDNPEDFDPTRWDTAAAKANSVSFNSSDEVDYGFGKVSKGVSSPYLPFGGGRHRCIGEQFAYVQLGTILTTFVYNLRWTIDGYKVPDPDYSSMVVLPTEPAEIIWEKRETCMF

Clc1ccc(C(Cn2ccnc2)[Se][Se]C(Cn2ccnc2)c2ccc(Cl)cc2Cl)c(Cl)c1 (centres undefined)
MIC [1]: 2 µg/mL (≈ 3.13 µM) | MIC [2]: 4 µg/mL (≈ 6.27 µM) | MIC [3]: 4 µg/mL (≈ 6.27 µM) | MFC [4]: 16 µg/mL (≈ 25.1 µM) | MFC [5]: 8 µg/mL (≈ 12.5 µM) | MFC [6]: 16 µg/mL (≈ 25.1 µM) | MFC [7]: > 64 µg/mL | MFC [8]: 16 µg/mL (≈ 25.1 µM) | MFC [9]: 2 µg/mL (≈ 3.13 µM) | MFC [10]: 4 µg/mL (≈ 6.27 µM) | Activity [11]: 24.4% | Activity [12]: 2.4% | Activity [13]: 2.7% | Activity [14]: 2.2% | Activity [15]: 6.4% | Activity [16]: 13.5% | Activity [17]: 8.4% | Activity [18]: 22.6% | Activity [19]: 14.2% | Activity [20]: 16.7% | Activity [21]: 60.8% | Activity [22]: 62.8% | Activity [23]: 69.5% | MIC50 [24]: 0.5 µg/mL (≈ 0.784 µM) | MIC80 [24]: 4 µg/mL (≈ 6.27 µM) | MIC50 [25]: 0.5 µg/mL (≈ 0.784 µM) | MIC80 [25]: 32 µg/mL (≈ 50.1 µM) | MIC50 [26]: 0.5 µg/mL (≈ 0.784 µM) | MIC80 [26]: 2 µg/mL (≈ 3.13 µM) | MIC50 [27]: 1 µg/mL (≈ 1.57 µM) | MIC80 [27]: 4 µg/mL (≈ 6.27 µM) | MIC50 [28]: 4 µg/mL (≈ 6.27 µM) | MIC80 [28]: 4 µg/mL (≈ 6.27 µM) | IC50 [29]: 6.25 µM | IC50 [30]: 1.43 µM | half-life [31]: 41.1 min | CLint scaled [32]: 134 mL/min/kg | Activity [33]: Active | Activity [34]: Non-Toxic | Activity [35]: Non-Toxic | Activity [36]: Non-Toxic | Activity [37]: Toxic | Activity [38]: Toxic | Activity [39]: Toxic

From ChEMBL document CHEMBL5352410, “Discovery of novel selenium-containing azole derivatives as antifungal agents by exploiting the hydrophobic cleft of CYP51” (Eur J Med Chem, 2022)
